Measured values from publication PMC7160233, “Peptides With Triplet-Tryptophan-Pivot Promoted Pathogenic Bacteria Membrane Defects” (Frontiers in Microbiology, 2020).
Where a SMILES comes first, the peptide text is derived from it.

Key:
[1] = tested on: MRSA* 43300; assay type: cell-based, methicillin-resistant Staphylococcus aureus; settings: * 43300, 24 h
Procedure: (§1) The antibacterial activity of the peptides was measured using a method adopted from the Clinical Laboratory Standards Institute (CLSI), with modifications. 50 μL bacterial cells solution with 1000-fold of OD600 = 0.4 was mixed with 50 μL of each peptide of various concentration ranged from 2 to 64 μM dissolved in BSA (0.2% with 0.01% acetic acid) and incubated in sterile 96-well plates at 37°C for 24 h. The MICs were calculated as the lowest concentration of peptide with no microbial growth being observed. Broth with microbial cells and uninoculated broth were used as positive control and negative control, respectively. The tests were performed at least three times.

[2] = tested on: S. aureus 29213; assay type: cell-based, Staphylococcus aureus; settings: 29213, 24 h
Procedure: as §1

[3] = tested on: P. aeruginosa 27853; assay type: cell-based, Pseudomonas aeruginosa; settings: 27853, 24 h
Procedure: as §1

[4] = tested on: L. rhamnosus 1.0385; assay type: cell-based, Lactobacillus rhamnosus; settings: 24 h
Procedure: as §1

[5] = tested on: L. rhamnosus 1.0911; assay type: cell-based, Lactobacillus rhamnosus; settings: 24 h
Procedure: as §1

[6] = tested on: L. rhamnosus 7469; assay type: cell-based, Lactobacillus rhamnosus; settings: 24 h
Procedure: as §1

[7] = tested on: L. rhamnosus 1.0386; assay type: cell-based, Lactobacillus rhamnosus; settings: 24 h
Procedure: as §1

[8] = tested on: L. rhamnosus 1.9025; assay type: cell-based, Lactobacillus rhamnosus; settings: 24 h
Procedure: as §1

[9] = tested on: E. coli UB 1005; assay: MIC measurement (modified CLSI broth microdilution); assay type: cell-based, Escherichia coli; settings: peptide 2-64 μM in 0.2% BSA with 0.01% acetic acid, 37°C, 24 h, at least three times
Procedure: as §1

[10] = tested on: E. coli 25922; assay type: cell-based, Escherichia coli; settings: 25922, 24 h
Procedure: as §1

[11] = tested on: S. epidermidis 12228; assay type: cell-based, Staphylococcus epidermidis; settings: 12228, 24 h
Procedure: as §1

[12] = tested on: L. plantarum 8014; assay type: cell-based; settings: 24 h
Procedure: as §1

Structure (SMILES)	MIC MRSA* 43300 [1] [μ M]	MIC S. aureus 29213 [2] [μ M]	MIC P. aeruginosa 27853 [3] [μ M]	MIC L. rhamnosus 1.0385 [4] [μ M]	MIC L. rhamnosus 1.0911 [5] [μ M]	MIC L. rhamnosus 7469 [6] [μ M]	MIC L. rhamnosus 1.0386 [7] [μ M]	MIC L. rhamnosus 1.9025 [8] [μ M]	MIC E. coli UB 1005 [9] [μ M]	MIC E. coli 25922 [10] [μ M]	MIC S. epidermidis 12228 [11] [μ M]	MIC L. plantarum 8014 [12] [μ M]
N=C(N)NCCC[C@H](NC(=O)[C@H](CCCNC(=N)N)NC(=O)[C@H](Cc1c[nH]c2ccccc12)NC(=O)[C@H](Cc1ccc(O)cc1)NC(=O)[C@H](Cc1c[nH]c2ccccc12)NC(=O)[C@H](Cc1c[nH]c2ccccc12)NC(=O)[C@H](Cc1c[nH]c2ccccc12)NC(=O)[C@H](Cc1ccc(O)cc1)NC(=O)[C@H](Cc1c[nH]c2ccccc12)NC(=O)[C@H](CCCNC(=N)N)NC(=O)[C@@H](N)CCCNC(=N)N)C(N)=O [Peptide S2] (H-RRWYWWWYWRR-NH2)	8	8	8	16	>64	>64	16	>64	32	32	8	4
N=C(N)NCCC[C@H](NC(=O)[C@H](CCCNC(=N)N)NC(=O)[C@H](Cc1c[nH]c2ccccc12)NC(=O)CNC(=O)[C@H](Cc1c[nH]c2ccccc12)NC(=O)[C@H](Cc1c[nH]c2ccccc12)NC(=O)[C@H](Cc1c[nH]c2ccccc12)NC(=O)CNC(=O)[C@H](Cc1c[nH]c2ccccc12)NC(=O)[C@H](CCCNC(=N)N)NC(=O)[C@@H](N)CCCNC(=N)N)C(N)=O [Peptide S6] (H-RRWGWWWGWRR-NH2)	16	16	8	>64	>64	>64	>64	>64	2	4	>64	>64
N=C(N)NCCC[C@H](NC(=O)[C@H](CCCNC(=N)N)NC(=O)[C@H](Cc1c[nH]c2ccccc12)NC(=O)[C@H](CS)NC(=O)[C@H](Cc1c[nH]c2ccccc12)NC(=O)[C@H](Cc1c[nH]c2ccccc12)NC(=O)[C@H](Cc1c[nH]c2ccccc12)NC(=O)[C@H](CS)NC(=O)[C@H](Cc1c[nH]c2ccccc12)NC(=O)[C@H](CCCNC(=N)N)NC(=O)[C@@H](N)CCCNC(=N)N)C(N)=O [Peptide S1] (H-RRWCWWWCWRR-NH2; N-terminus assumed)	4	8	8	16	>64	>64	>64	>64	16	>64	8	8
N=C(N)NCCC[C@H](NC(=O)[C@H](CCCNC(=N)N)NC(=O)[C@H](Cc1c[nH]c2ccccc12)NC(=O)[C@H](CCC(N)=O)NC(=O)[C@H](Cc1c[nH]c2ccccc12)NC(=O)[C@H](Cc1c[nH]c2ccccc12)NC(=O)[C@H](Cc1c[nH]c2ccccc12)NC(=O)[C@H](CCC(N)=O)NC(=O)[C@H](Cc1c[nH]c2ccccc12)NC(=O)[C@H](CCCNC(=N)N)NC(=O)[C@@H](N)CCCNC(=N)N)C(N)=O [Peptide S4] (H-RRWQWWWQWRR-NH2)	4	4	4	16	>64	>64	64	>64	4	4	4	8
